Reference: patent US11865126B2, “Method for treating anxiety disorders, headache disorders, and eating disorders with psilocybin” (priority 2019, dated 2024)

Tested on: healthy subjects
Experiment: Phase 1 healthy volunteer study, single oral dose: treatment-emergent adverse events
Type: in vivo, human
Settings: 25 mg
Method: A Phase 1 randomized, double-blind, placebo-controlled study to evaluate the effect of psilocybin on cognitive and emotional processing as compared to placebo in healthy volunteers was conducted. The study investigated the short-term (Day 7) and long-term (Day 28) effects of moderate (10 mg) and high doses (25 mg) of psilocybin on key domains of cognition, such as episodic memory, attention, working and spatial memory, social cognition and elements of executive function, including cognitive flexibility.
90 healthy subjects were studied. Approximately 50% of the subjects were psilocybin-naïve. For subjects with prior psilocybin experience, the last exposure was at least 1 year prior to the signing of the Informed Consent Form (ICF). Approximately 50% of the subjects were female. Subjects were stratified by sex and age (18-35 years old; >35 years old).
Each subject was assigned 1 treatment bottle containing 5 capsules packaged in a double-blind fashion, depending on the randomized treatment arm, the bottle contained one of the following: • a. Psilocybin 10 mg: 2×5-mg oral psilocybin capsules plus 3× placebo capsules • b. Psilocybin 25 mg: 5×5-mg oral psilocybin capsules • c. Placebo: 5× placebo capsules
Each 5-mg oral psilocybin capsule comprised 5 mg crystalline psilocybin in the form of Polymorph A, 12.5 mg of SMCC 50, 79.5 mg of SMCC 90, 1 mg sodium starch glycolate, 1 mg colloidal silicon dioxide, and 1 mg sodium stearyl fumarate
Adverse events: Throughout the course of the study, all AEs were monitored and recorded. Each AE was classified according to the following criteria: • i. […] Moderate: The AE produces some impairment of functioning, but is not hazardous to the subject's health. • iii. Severe: The AE produces significant impairment of functioning or incapacitation and is a definite hazard to the subject's health.
Selected Adverse Events of included: • (a) Euphoric mood • (b) Dissociative disorder • (c) Hallucination • (d) Psychotic disorder • (e) Cognitive disorder • (f) Disturbance in attention • (g) Altered mood • (h) Impairment of psychomotor skills • (i) Inappropriate affect • (j) Overdose • (k) Intentional product misuse • (l) Illusion
For example, drug-induced hepatitis that resolved without evidence of hepatic failure would not be considered life threatening even though drug-induced hepatitis can be fatal. • (c) Inpatient hospitalization or prolongation of existing hospitalization. • (d) Persistent or significant disability/incapacity. • (e) Congenital anomaly/birth defect in the offspring of a subject who received psilocybin. • (f) Other: Important medical events that may not result in death, be life-threatening, or require hospitalization, may be considered an SAE when, based upon appropriate medical judgment, they may jeopardize the subject and may require medical or surgical intervention to prevent one of the outcomes listed in this definition. […] Visits:
Visit 3 (V3): Drug Administration (Day 0): The subject was asked to eat a light breakfast at least two hours prior to coming to the clinic for study drug administration. On Day 0 (V3), the subject underwent the SSTS, had vital signs obtained, medications reviewed, AEs recorded and eligibility reviewed prior to being randomized to study drug. The study drug was administered to up to six subjects simultaneously in individual beds separated by a curtain. The subject was invited to put on eyeshades and headphones, lie down and listen to calming music for the rest of the session (six hours). The subject was supported 1:1 with a chaperone and supervised by the study psychiatrist and lead therapist.
Recording of adverse events and prior/concomitant medication was performed at each visit.
During administration of psilocybin, each subject received one on one support from a trained assisting therapist and each dosing session was supervised by a study psychiatrist and a lead therapist. […]

CN(C)CCc1c[nH]c2cccc(OP(=O)(O)O)c12 [psilocybin]
Any severe TEAE: % of subjects: (33.3) %
Any severe TEAE: Events: 29
Any severe TEAE: N (%): 10
Emotional disorder, worst severity Mild: Events: 1
Emotional disorder, worst severity Moderate: Events: 5
Emotional disorder, worst severity Severe: Events: 0
Emotional disorder, worst severity Severe: N (%): 0
Emotional disorder: Events: 6
Euphoric mood, worst severity Mild: Events: 3
Euphoric mood, worst severity Mild: N (%): 3 (10.0)
Euphoric mood, worst severity Moderate: Events: 4
Euphoric mood, worst severity Severe: Events: 0
Euphoric mood, worst severity Severe: N (%): 0
Euphoric mood: Events: 8
Fatigue, worst severity Mild: Events: 3
Fatigue, worst severity Mild: N (%): 3 (10.0)
Fatigue, worst severity Moderate: Events: 5
Fatigue, worst severity Severe: Events: 0
Fatigue, worst severity Severe: N (%): 0
Fatigue: Events: 8
Feeling abnormal, worst severity Mild: Events: 0
Feeling abnormal, worst severity Mild: N (%): 0
Feeling abnormal, worst severity Moderate: Events: 0
Feeling abnormal, worst severity Moderate: N (%): 0
Feeling abnormal, worst severity Severe: Events: 0
Feeling abnormal, worst severity Severe: N (%): 0
Feeling abnormal: Events: 0
Feeling abnormal: N (%): 0
Feeling of relaxation: Events: 1
Gastrointestinal disorders, worst severity Mild: Events: 4
Gastrointestinal disorders, worst severity Moderate: Events: 1
Gastrointestinal disorders, worst severity Severe: Events: 0
Gastrointestinal disorders, worst severity Severe: N (%): 0
Gastrointestinal disorders: Events: 5
General disorders and administration site conditions, worst severity Mild: Events: 8
General disorders and administration site conditions, worst severity Moderate: Events: 7
General disorders and administration site conditions, worst severity Moderate: N (%): 6 (20.0)
General disorders and administration site conditions, worst severity Severe: Events: 1
General disorders and administration site conditions: Events: 18
Hallucination, auditory, worst severity Mild: Events: 1
Hallucination, auditory, worst severity Moderate: Events: 3
Hallucination, auditory, worst severity Moderate: N (%): 3 (10.0)
Hallucination, auditory, worst severity Severe: Events: 0
Hallucination, auditory, worst severity Severe: N (%): 0
Hallucination, auditory: Events: 4
Hallucination, tactile: Events: 4
Hallucination, visual, worst severity Mild: Events: 3
Hallucination, visual, worst severity Mild: N (%): 3 (10.0)
Hallucination, visual, worst severity Moderate: Events: 13
Hallucination, visual, worst severity Severe: Events: 5
Hallucination, visual: Events: 22
Hallucination, worst severity Mild: Events: 0
Hallucination, worst severity Mild: N (%): 0
Hallucination, worst severity Moderate: Events: 2
Hallucination, worst severity Severe: Events: 0
Hallucination, worst severity Severe: N (%): 0
Hallucination: Events: 2
Headache, worst severity Mild: Events: 10
Headache, worst severity Moderate: Events: 5
Headache, worst severity Severe: Events: 0
Headache, worst severity Severe: N (%): 0
Headache: Events: 16
Hypoaesthesia, worst severity Mild: Events: 4
Hypoaesthesia, worst severity Mild: N (%): 3 (10.0)
Hypoaesthesia, worst severity Moderate: Events: 0
Hypoaesthesia, worst severity Moderate: N (%): 0
Hypoaesthesia, worst severity Severe: Events: 0
Hypoaesthesia, worst severity Severe: N (%): 0
Hypoaesthesia: Events: 4
Hypoaesthesia: N (%): 3 (10.0)
Illusion, worst severity Mild: Events: 4
Illusion, worst severity Mild: N (%): 3 (10.0)
Illusion, worst severity Moderate: Events: 12
Illusion, worst severity Severe: Events: 7
Illusion: Events: 26
Infections and infestations, worst severity Mild: Events: 4
Infections and infestations, worst severity Moderate: Events: 0
Infections and infestations, worst severity Moderate: N (%): 0
Infections and infestations, worst severity Severe: Events: 0
Infections and infestations, worst severity Severe: N (%): 0
Infections and infestations: Events: 4
Investigations, worst severity Mild: Events: 1
Investigations, worst severity Moderate: Events: 0
Investigations, worst severity Moderate: N (%): 0
Investigations, worst severity Severe: Events: 0
Investigations, worst severity Severe: N (%): 0
Investigations: Events: 1
Mental fatigue: Events: 3
Mental fatigue: N (%): 3 (10.0)
Mood altered, worst severity Mild: Events: 3
Mood altered, worst severity Moderate: Events: 7
Mood altered, worst severity Moderate: N (%): 6 (20.0)
Mood altered, worst severity Severe: Events: 9
Mood altered: Events: 25
Musculoskeletal and connective tissue disorders, worst severity Mild: Events: 3
Musculoskeletal and connective tissue disorders, worst severity Moderate: Events: 1
Musculoskeletal and connective tissue disorders, worst severity Severe: Events: 0
Musculoskeletal and connective tissue disorders, worst severity Severe: N (%): 0
Musculoskeletal and connective tissue disorders: Events: 4
Musculoskeletal and connective tissue disorders: N (%): 3 (10.0)
Nausea: Events: 3
Nausea: N (%): 3 (10.0)
Nervous system disorders, worst severity Mild: Events: 24
